Drawing on US20250034182A1, “PHOSPHOLIPID COMPOUNDS AND METHODS OF MAKING AND USING THE SAME” (priority 2021, published 2025), this text covers EC50 and CC50 for eleven molecules.

The test system of series [1] is dengue virus type 2 in Huh7 hepatoblastoma cells. The experiment in a line: Dengue Virus-2 Huh-7 EC50 (Example W). The series is classed as cell-based. As to conditions: MOI of 0.07, CPE, neutral red dye, read-out: Dengue Virus-2 Huh-7 EC50 (nM) (per Ex. W). Here is the method: (§1) Huh7 hepatoblastoma cells were seeded onto 96-well plates and incubated at 37° C. with 5% CO2 overnight. The plates were seeded at a cell concentration that will yield >70% confluent monolayers in each well after overnight incubation. Eight 3-fold serial dilutions of compounds were diluted in test media (MEM supplemented with 2% FBS and 50 μg/mL gentamicin). The highest test compound concentration was 50 μg/mL. 100 μL of each concentration was added to 5 test wells on the 96-well plate. Of these 5 test wells, 3 wells of each dilution were infected with dengue virus type 2, diluted in test media (approximately 2000 CCID50 per well for an MOI of 0.07). Test medium (100 μL) with no virus was added to 2 wells to represent the uninfected cytotoxicity controls. Six additional infected wells received 100 μL media alone as untreated virus controls. Further, 100 μL of media alone was added to 6 uninfected wells to serve as uninfected, untreated controls. Cultures were incubated at 37° C.+5% CO2 until >80% CPE is observed. After cytopathic effect (CPE) is observed microscopically, 0.011% neutral red dye was added for approximately 2 hours. The neutral red dye was removed and wells were rinsed once with PBS to remove residual, unincorporated dye. A 50:50 Sorensen citrate buffer/ethanol solution was added and incubated at room temperature for >30 minutes with agitation, followed by measurement of neutral red dye using a spectrophotometer at 540 nm. The resulting optical density measurement was converted to percent signal of the infected, untreated cell control normalizing to virus controls. EC50 and CC50 values were determined by linear regression analysis.

A further series can be described thus: in vitro. The class given is cell-based. The note with it: human. Here is the method:
as §1

What is called EC50 is the midpoint of the concentration-response curve. The CC50 is the concentration at which the toxic effect on the cells reaches its halfway point. Lower therefore signals harm at low concentration.

As for `CCCCCCCCCCCCCCCCCCOC[C@H](COP(=O)(O)OC[C@@]1(C#N)O[C@@H](c2ccc3c(N)ncnn23)[C@H](O)[C@@H]1O)OCc1ccc(C#N)c(-n2cncn2)c1` [Compound 16, ((2R,3S,4R,5S)-5-(4-aminopyrrolo[2,1-f][1,2,4]triazin-7-yl)-2-cyano-3,4-dihydroxytetrahydrofuran-2-yl)methyl ((R)-2-((4-cyano-3-(1H-1,2,4-triazol-1-yl)benzyl)oxy)-3-(octadecyloxy)propyl) hydrogen phosphate], in series [1], the EC50 was 3900 nM. The CC50 in the series “in vitro” came to 24 µM.

On to `CCCCCCCCCCCCCCCCCCOC[C@H](COP(=O)(O)OC[C@@]1(C#N)O[C@@H](c2ccc3c(N)ncnn23)[C@H](O)[C@@H]1O)Oc1ccc(C#N)c(OC(C)C)c1` [Compound 23, ((2R,3S,4R,5S)-5-(4-aminopyrrolo[2,1-f][1,2,4]triazin-7-yl)-2-cyano-3,4-dihydroxytetrahydrofuran-2-yl)methyl ((R)-2-(4-cyano-3-isopropoxyphenoxy)-3-(octadecyloxy)propyl) hydrogen phosphate], for which, in series [1], the EC50 was found to be 8600 nM. The CC50 in the series “in vitro” was 26 µM.

As for `CCCCCCCCCCCCCCCCCCC[C@H](COP(=O)(O)OC[C@@]1(C#N)O[C@@H](c2ccc3c(N)ncnn23)[C@H](O)[C@@H]1O)OCc1ccc(C#N)c(OC(C)C)c1` [Compound 28, ((2R,3S,4R,5S)-5-(4-aminopyrrolo[2,1-f][1,2,4]triazin-7-yl)-2-cyano-3,4-dihydroxytetrahydrofuran-2-yl)methyl ((R)-2-((4-cyano-3-isopropoxybenzyl)oxy)henicosyl) hydrogen phosphate], in series [1], the EC50 came out at 9500 nM. It took 19 µM to reach half-maximal cytotoxicity in “in vitro” (CC50).

On to `CCCCCCCCCCCCCCCCCCC[C@H](COP(=O)(O)OC[C@@]1(C#N)O[C@@H](c2ccc3c(N)ncnn23)[C@H](O)[C@@H]1O)OCc1ccc(-n2cncn2)c(C#N)c1` [Compound 30, ((2R,3S,4R)-5-(4-aminopyrrolo[2,1-f][1,2,4]triazin-7-yl)-2-cyano-3,4-dihydroxytetrahydrofuran-2-yl)methyl ((R)-2-((3-cyano-4-(1H-1,2,4-triazol-1-yl)benzyl)oxy)henicosyl) hydrogen phosphate], for which the EC50 in series [1] came out at 1200 nM. The same molecule registered a CC50 in the series “in vitro” of 5.9 µM.

Regarding `CCCCCCCCCCCCCCCCCCCC[C@H](COP(=O)(O)OC[C@@]1(C#N)O[C@@H](c2ccc3c(N)ncnn23)[C@H](O)[C@@H]1O)OCc1cc(F)cc(C#N)c1` [Compound 34, ((2R,3S,4R)-5-(4-aminopyrrolo[2,1-f][1,2,4]triazin-7-yl)-2-cyano-3,4-dihydroxytetrahydrofuran-2-yl)methyl ((R)-2-((3-cyano-5-fluorobenzyl)oxy)docosyl) hydrogen phosphate], in series [1], the EC50 amounted to 15000 nM. In addition, it took 15 µM to reach half-maximal cytotoxicity in “in vitro” (CC50).

`CCCCCCCCCCCCCCCCCCC[C@H](COP(=O)(O)OC[C@@]1(C#N)O[C@@H](c2ccc3c(N)ncnn23)[C@H](O)[C@@H]1O)Oc1ccc(C#N)c(OC(C)C)c1` [Compound 38, ((2R,3S,4R,5S)-5-(4-aminopyrrolo[2,1-f][1,2,4]triazin-7-yl)-2-cyano-3,4-dihydroxytetrahydrofuran-2-yl)methyl ((R)-2-(4-cyano-3-isopropoxyphenoxy)henicosyl) hydrogen phosphate]: the EC50 in series [1] was determined as 2900 nM. Further, the CC50 in “in vitro” is 5.8 µM.

In the case of `CCCCCCCCCCCCCCCCCCC[C@H](COP(=O)(O)OC[C@@]1(C#N)O[C@@H](c2ccc3c(N)ncnn23)[C@H](O)[C@@H]1O)Oc1cc(OC)c(C#N)c(OC)c1` [Compound 39, ((2R,3S,4R,5S)-5-(4-aminopyrrolo[2,1-f][1,2,4]triazin-7-yl)-2-cyano-3,4-dihydroxytetrahydrofuran-2-yl)methyl ((R)-2-(4-cyano-3,5-dimethoxyphenoxy)henicosyl) hydrogen phosphate], the EC50 in series [1] was determined as 9100 nM. Also, the CC50 in “in vitro” is 14 µM.

For the molecule `CCCCCCCCCCCCCCCCCCOCC(COc1cc(F)cc(C#N)c1)COP(=O)(O)OC[C@@]1(C#N)O[C@@H](c2ccc3c(N)ncnn23)[C@H](O)[C@@H]1O` (stereo partly drawn) [Compound 43, ((2R,3S,4R,5S)-5-(4-aminopyrrolo[2,1-f][1,2,4]triazin-7-yl)-2-cyano-3,4-dihydroxytetrahydrofuran-2-yl)methyl (3-(3-cyano-5-fluorophenoxy)-2-((octadecyloxy)methyl)propyl) hydrogen phosphate], in series [1], the EC50 amounted to 9700 nM. Further, half-maximal cytotoxicity in “in vitro” (CC50) was put at 14 µM.

As for `CCCCCCCCCCCCCCCCCCCC[C@@H](COP(=O)(O)OC[C@@]1(C#N)O[C@@H](c2ccc3c(N)ncnn23)[C@H](O)[C@@H]1O)OCc1cc(F)cc(C#N)c1` [Compound 70, ((2R,3S,4R)-5-(4-aminopyrrolo[2,1-f][1,2,4]triazin-7-yl)-2-cyano-3,4-dihydroxytetrahydrofuran-2-yl)methyl ((S)-2-((3-cyano-5-fluorobenzyl)oxy)docosyl) hydrogen phosphate], the EC50 in series [1] worked out at 12000 nM. In addition, the midpoint of cytotoxicity in “in vitro”, the CC50, lay at 12 µM.

Consider `CCCCCCCCCCCCCCCCCCOC[C@@H](COP(=O)(O)OC[C@@]1(C#N)O[C@@H](c2ccc3c(N)ncnn23)[C@H](O)[C@@H]1O)Oc1ccc(C#N)nc1` [Compound 72, ((2R,3S,4R,5S)-5-(4-aminopyrrolo[2,1-f][1,2,4]triazin-7-yl)-2-cyano-3,4-dihydroxytetrahydrofuran-2-yl)methyl ((S)-2-((6-cyanopyridin-3-yl)oxy)-3-(octadecyloxy)propyl) hydrogen phosphate], for which, in series [1], the EC50 was 2400 nM. The CC50 in the series “in vitro” was 17 µM.

As to `CCCCCCCCCCCCCCCCC[C@@H](COP(=O)(O)OC[C@@]1(C#N)O[C@@H](c2ccc3c(N)ncnn23)[C@H](O)[C@@H]1O)OCc1cc(F)cc(C#N)c1` [Compound 74, ((2R,3S,4R)-5-(4-aminopyrrolo[2,1-f][1,2,4]triazin-7-yl)-2-cyano-3,4-dihydroxytetrahydrofuran-2-yl)methyl ((S)-2-((3-cyano-5-fluorobenzyl)oxy)nonadecyl) hydrogen phosphate], the concentration giving a half-maximal response (EC50) in series [1] worked out at 10000 nM. This molecule also gave a CC50 in the series “in vitro” of 15 µM.
